From ChEMBL document CHEMBL1145633, “Inhibitors of the tyrosine kinase EphB4. Part 1: Structure-based design and optimization of a series of 2,4-bis-anilinopyrimidines” (Bioorg Med Chem Lett, 2008)

Biological target: T1, Ephrin type-B receptor 4 (Homo sapiens, UniProt P54760)
T1 sequence (P54760 whole entry): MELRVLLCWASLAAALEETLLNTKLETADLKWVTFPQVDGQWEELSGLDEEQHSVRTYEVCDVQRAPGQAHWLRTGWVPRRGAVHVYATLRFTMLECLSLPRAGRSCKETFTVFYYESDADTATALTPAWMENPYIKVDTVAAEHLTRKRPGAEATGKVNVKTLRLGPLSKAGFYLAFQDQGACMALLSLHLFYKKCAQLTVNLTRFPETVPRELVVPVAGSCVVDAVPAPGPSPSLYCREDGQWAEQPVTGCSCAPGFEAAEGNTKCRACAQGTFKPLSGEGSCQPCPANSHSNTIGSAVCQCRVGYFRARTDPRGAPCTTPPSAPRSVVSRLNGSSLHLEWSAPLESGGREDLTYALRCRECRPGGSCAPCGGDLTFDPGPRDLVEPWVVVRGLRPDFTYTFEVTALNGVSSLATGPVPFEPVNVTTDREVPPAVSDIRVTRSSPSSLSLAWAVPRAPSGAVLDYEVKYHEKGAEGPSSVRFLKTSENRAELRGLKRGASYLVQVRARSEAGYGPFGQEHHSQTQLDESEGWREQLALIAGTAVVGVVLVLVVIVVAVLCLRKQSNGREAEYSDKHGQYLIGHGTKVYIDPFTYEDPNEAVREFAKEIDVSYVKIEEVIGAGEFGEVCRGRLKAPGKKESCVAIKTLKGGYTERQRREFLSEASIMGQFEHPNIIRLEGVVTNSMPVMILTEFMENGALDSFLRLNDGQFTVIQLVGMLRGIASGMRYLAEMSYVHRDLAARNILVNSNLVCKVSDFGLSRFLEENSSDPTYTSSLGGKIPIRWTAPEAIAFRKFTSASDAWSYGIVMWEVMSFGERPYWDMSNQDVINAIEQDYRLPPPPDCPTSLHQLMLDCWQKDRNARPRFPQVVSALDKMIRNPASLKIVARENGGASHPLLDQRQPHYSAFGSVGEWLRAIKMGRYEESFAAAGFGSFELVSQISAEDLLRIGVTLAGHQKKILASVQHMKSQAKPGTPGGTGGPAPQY
Assay: Inhibition of EphB4

For COc1cc(Nc2ncnc(Nc3c(Cl)ccc4c3OCO4)n2)cc(OC)c1OC, the IC50 was 2.96 µM.

Work on COc1cc(Nc2cc(Nc3c(Cl)ccc4c3OCO4)ncn2)cc(OC)c1OC yielded an IC50 of 2.54 µM.

For Clc1ccc2c(c1Nc1ccnc(Nc3ccccc3N3CCOCC3)n1)OCO2, the IC50 was 7.85 µM.

COc1ccc(Nc2nccc(Nc3c(Cl)ccc4c3OCO4)n2)cc1 was tested, and the IC50 was 1.94 µM.

Clc1ccc(Nc2nccc(Nc3c(Cl)ccc4c3OCO4)n2)cc1 showed an IC50 of 6 µM.

For N#Cc1cccc(Nc2nccc(Nc3c(Cl)ccc4c3OCO4)n2)c1, the IC50 was 0.55 µM.

Work on COc1ccccc1Nc1nccc(Nc2c(Cl)ccc3c2OCO3)n1 yielded an IC50 of 3.88 µM.

Compound CS(=O)(=O)c1ccccc1Nc1nccc(Nc2c(Cl)ccc3c2OCO3)n1 has an IC50 of 41 µM.

Compound Fc1ccccc1Nc1nccc(Nc2c(Cl)ccc3c2OCO3)n1 has an IC50 of 5 µM.

For N#Cc1ccc(Nc2nccc(Nc3c(Cl)ccc4c3OCO4)n2)cc1, the IC50 was 1.25 µM.

Clc1ccc2c(c1Nc1ccnc(Nc3ccccc3)n1)OCO2 gave an IC50 of 1.55 µM.

Clc1ccccc1Nc1nccc(Nc2c(Cl)ccc3c2OCO3)n1 gave an IC50 of 11.3 µM.
